“And” between values parts separate entries of the source, which are not always exact repeats. Equal entries are not always repeated. “Also recorded” adds a separate entry of the source. Where two headings read alike, the source gives them in different places.
Tests used:
Type in all cases: in vivo, human
[1] = tested on: adult patients with Gaucher disease Type 3; assay: Clinical study in GD-3 patients: resting-state fMRI connectivity; conditions: 15 mg/day + imiglucerase, individual Patients 1, 3, 4, 5, 6 (Patient 5 likely non-compliant)
Method: Neurological function-was further evaluated using functional magnetic resonance imaging (fMRI). Patient 2 was excluded because no fMRI data was collected at the Week 52 session. Resting-state fMRI screening sessions were performed at baseline screening, Week 26, and Week 52 visits. Connectivity estimates from four subjects (Patients 1, 3, 4 and 5) were entered into second-level analyses as a “compliant” group. Patient 5 was isolated due to likely non-compliance with study medication, as described above. Analyses were performed as described elsewhere (Smith et al. [2009]).
Spatial analysis of the connectivity between different anatomic regions of the brain is performed to define a correlation coefficient for regressed voxelwise mean intensity.

[2] = tested on: adult patients with Gaucher disease Type 3; assay: Clinical study in GD-3 patients: horizontal and vertical saccadic eye movements; conditions: 15 mg/day + imiglucerase
Method: (§1) During the study patients were evaluated for safety and tolerability, CSF and plasma biomarkers (glucosylceramide, GL-1; glucosylsphingosine, lyso-GL1), pharmacokinetics, markers for systemic disease (spleen and liver volume measured by magnetic resonance imaging (MRI), platelet count, hemoglobin levels), indicia of interstitial lung disease (high resolution pulmonary computed tomography (CT)), and horizontal saccadic eye movement.
Quantification of horizontal and vertical saccadic eye movements (HSEM and VSEM, respectively) was performed in all 5 patients. In the five patients, mean peak velocity (PV) of horizontal rightward 15° saccades was 50.8°/s (+/−8.1°/s) at baseline and […] (+/−12.6°/s) at Week 26; and the mean PV of horizontal leftward 15° saccades was 44.7° /s (+/−17.9°/s) at baseline and 32.3°/s (+/−15.9°/s) at Week 26. A slower velocity implies a more significant degree of neurological impairment. The mean PV of horizontal rightward 30° saccades was 77.7°/s (+/−16.4°/s) at baseline and […] (+/−24.7°/s) at Week 26; and the mean PV of horizontal leftward 30° saccades was 58.7°/s (+/−21.5°/s) at baseline and 49.9°/s (+/−8.5°/s) at Week 26. The normal range for […] horizontal saccades has previously been reported as >200°/s and >400°/s (Bremova-Ertl et al, 2018). […] As with HSEM, VSEM measurements were stable between baseline and week 26.
At 52 weeks, quantification of horizontal and vertical saccadic eye movements was performed in all six patients in a similar manner as described in section (A). However, it was determined that the methodology used to account for noise (e.g., caused by blinking or head movements) may have introduced bias into the results. The method of accounting for noise was therefore modified, and a set of control criteria were developed to assess validity of the datasets obtained by the eye movement reader.

[3] = tested on: adult patients with Gaucher disease Type 3; assay: Clinical study in GD-3 patients: safety and tolerability; conditions: 15 mg/day + imiglucerase
Method: as §1

[4] = tested on: adult patients with Gaucher disease Type 3; assay: Clinical study in GD-3 patients: interstitial lung disease by high-resolution CT; conditions: 15 mg/day + imiglucerase
Method: as §1
Severity of interstitial lung disease was characterized by the percent of lung volume affect by ILD as measured by high-resolution CT in four lung regions (aortic arch, carina, lower zone L3, lower zone L4). Patients were rated as having severe ILD (51-100% of lung volume affected), moderate ILD (26-50% of lung volume affected), mild ILD (1-25% of lung volume affected) or normal (0% of lung volume showing ILD).

[5] = Study 1 Part 1: ascending single-dose pharmacokinetics in healthy volunteers; conditions: healthy men; for Tmax: male, human, plasma, read-out: tmax, median
Source text: Study 1 was a 2-part single-center trial in healthy adult male volunteers.
Part 1 of the study enrolled and randomized 55 healthy men (placebo, n=14; 2-, 5-, 15, 25-, 50, and 100-mg doses, n=6 each; 150-mg dose, n=5). Eight healthy men participated in Part 2. […]

[6] = tested on: plasma GL-1, GL-3, and GM3; assay: Study 2: pharmacodynamics in healthy volunteers; conditions: healthy adults; all dose groups (5, 10, 20 mg)
Method: The study enrolled and randomized 36 healthy adults (19 men and 17 women) (n=9 each to group).
Pharmacodynamic endpoints (plasma GL-1, GL-3, and GM3 concentrations) were assessed on Days 1-5, 8, 11, 13, and 14, at 0 hours […]; and on Day 15, at 24 hours after the Day 14 dose.

[7] = Week 26, individual Patients 1-5
[8] = single oral dose 2 mg, fasted (N = 6)
[9] = single oral dose 5 mg, fasted (N = 6)
[10] = single oral dose 15 mg, fasted (N = 6)
[11] = single oral dose 25 mg, fasted (N = 6)
[12] = single oral dose 50 mg, fasted (N = 6)
[13] = single oral dose 100 mg, fasted (N = 6)
[14] = single oral dose 150 mg, fasted (N = 5)

CC(C)(NC(=O)O[C@@H]1CN2CCC1CC2)c1csc(-c2ccc(F)cc2)n1 [Compound 2, (S)-quinuclidin-3-yl 2-(2-(4-fluorophenyl)thiazol-4-yl)propan-2-ylcarbamate]
Change in Correlation Coefficient (connectivity default mode network - executive function network) [1]: +0.20 (3×) and −0.13 and +0.70
Changes in HSEM ([2]; 26-week treatment period): no clinically meaningful changes in HSEM
Mean peak velocity of horizontal leftward 15° saccades ([2]; Week 26, five patients): 32.3 °/s
Mean peak velocity of horizontal leftward 30° saccades ([2]; Week 26, five patients): 49.9 °/s
VSEM measurements ([2]; between baseline and week 26): stable
Treatment-emergent adverse events ([3]; 26 weeks, all 5 patients): no serious or lasting treatment-emergent adverse events
Severity and relatedness of treatment-emergent adverse events ([3]; 52 weeks, six patients): mild or moderate in severity, and none of which were considered related to treatment with Compound 2 or imiglucerase
Total treatment-emergent adverse events reported ([3]; 52 weeks, six patients): 30
ILD severity, Aortic Arch Left [4, 7]: Norm (normal (0% of lung volume showing ILD)); also recorded: Mild (mild ILD (1-25% of lung volume affected))
ILD severity, Aortic Arch Right [4, 7]: Norm (normal (0% of lung volume showing ILD)); also recorded: Mild (mild ILD (1-25% of lung volume affected))
ILD severity, Carina Left [4, 7]: Norm (normal (0% of lung volume showing ILD)); also recorded: Mild (mild ILD (1-25% of lung volume affected))
ILD severity, Carina Right [4, 7]: Norm (normal (0% of lung volume showing ILD)); also recorded: Mod (moderate ILD (26-50% of lung volume affected)); also recorded: Mild (mild ILD (1-25% of lung volume affected))
ILD severity, Zone L3 Left [4, 7]: Norm (normal (0% of lung volume showing ILD)); also recorded: Mild (mild ILD (1-25% of lung volume affected))
ILD severity, Zone L3 Right [4, 7]: Norm (normal (0% of lung volume showing ILD)); also recorded: Mild (mild ILD (1-25% of lung volume affected))
ILD severity, Zone L4 Left [4, 7]: Norm (normal (0% of lung volume showing ILD)); also recorded: Mod (moderate ILD (26-50% of lung volume affected))
ILD severity, Zone L4 Right [4, 7]: Norm (normal (0% of lung volume showing ILD)); also recorded: Mod (moderate ILD (26-50% of lung volume affected))
Patients showing regression of ILD ([4]; after 26 weeks): 4 out of 5
CL/F, Geometric mean [5, 8]: 6.3 L/h
CL/F, Mean [5, 8]: 6.43 L/h
CL/F, Geometric mean [5, 9]: 5.8 L/h
CL/F, Mean [5, 9]: 5.86 L/h
CL/F, Geometric mean [5, 10]: 5.6 L/h
CL/F, Mean [5, 10]: 5.85 L/h
Cmax, Geometric mean [5, 10]: 50.7 ng/mL
CL/F, Geometric mean [5, 11]: 5.0 L/h
CL/F, Mean [5, 11]: 5.18 L/h
CL/F, Geometric mean [5, 12]: 5.5 L/h
CL/F, Mean [5, 12]: 5.75 L/h
CL/F, Geometric mean [5, 13]: 5.3 L/h
CL/F, Mean [5, 13]: 5.38 L/h
CL/F, Geometric mean [5, 14]: 5.6 L/h
CL/F, Mean [5, 14]: 5.80 L/h
Tmax [5, 11]: 5 h
Tmax [5, 13]: 3 h
Plasma GL-3 over time [6]: decreased with time

— patent US20220016092A1, “METHODS FOR TREATING SYMPTOMS AND DISORDERS ASSOCIATED WITH LYSOSOMAL STORAGE DISEASES” (GENZYME CORPORATION, priority 2019, published 2022)
